Laboratory results reported in patent US20140255518A1, “Treatment and Prevention of Gastrointestinal Syndrome” (THOMAS JEFFERSON UNIVERSITY HOSPITALS, INC., priority 2011, published 2014).
Where two headings read alike, the source gives them in different places. No end group written: not given here.

Legend:
[1] = biological target: ST receptors / guanylate cyclase (Homo sapiens, UniProt P25092); conditions: compared with native ST; cited from earlier work
human liver cancer cells = assay: CPT11-induced cell death after cGMP preconditioning, liver cancer cells; assay type: cell-based; conditions: cGMP precondition
Protocol: (§1) Experiments were performed to show the requirement of GCC activation in the protection of small intestine and colon cells from apoptosis and genotoxic induced cell death. The role of activation of GCC and of the presence of p53 was also evaluated. Test on cancer cells were performed to compare the protection by cGMP of colon cancer cells from cell death in compared to cGMP's potentiation of cell death in other cancers.

[2] = tested on: HCT116 cells (P53 wildtype); assay: IR-induced cell death after cGMP preconditioning, HCT116 (P53 wildtype); assay type: cell-based, human; conditions: HCT116 cells (P53 wildtype) preconditioned with cGMP; FIG. 3 (A)
Protocol: as §1

[3] = tested on: HCT116P53−/− cells (P53 null); assay: IR-induced cell death after cGMP preconditioning, HCT116 P53 null; assay type: cell-based, human; conditions: HCT116P53−/− cells (P53 null) preconditioned with cGMP; FIG. 3 (B)
Protocol: as §1

HCT116 cells = assay: CPT11-induced cell death after cGMP preconditioning, HCT116 cells; assay type: cell-based, human; conditions: HCT116 cells preconditioned with cGMP
Protocol: as §1

human colon cells = assay: Cell death after irinotecan (CPT11) challenge, human colon cells; assay type: cell-based; conditions: irinotecan (CPT11, 100 μM)
Protocol: as §1

[4] = tested on: human prostate cancer cells; assay: CPT11-induced cell death after cGMP preconditioning, prostate cancer cells; assay type: cell-based; conditions: cGMP precondition
Protocol: as §1

[5] = tested on: human breast cancer cells; assay: CPT11-induced cell death after cGMP preconditioning, breast cancer cells; assay type: cell-based; conditions: cGMP precondition
Protocol: as §1

[6] = tested on: irradiated intestinal tissue; conditions: cited from earlier work

Chain of ST receptors / guanylate cyclase (P25092 24-1073): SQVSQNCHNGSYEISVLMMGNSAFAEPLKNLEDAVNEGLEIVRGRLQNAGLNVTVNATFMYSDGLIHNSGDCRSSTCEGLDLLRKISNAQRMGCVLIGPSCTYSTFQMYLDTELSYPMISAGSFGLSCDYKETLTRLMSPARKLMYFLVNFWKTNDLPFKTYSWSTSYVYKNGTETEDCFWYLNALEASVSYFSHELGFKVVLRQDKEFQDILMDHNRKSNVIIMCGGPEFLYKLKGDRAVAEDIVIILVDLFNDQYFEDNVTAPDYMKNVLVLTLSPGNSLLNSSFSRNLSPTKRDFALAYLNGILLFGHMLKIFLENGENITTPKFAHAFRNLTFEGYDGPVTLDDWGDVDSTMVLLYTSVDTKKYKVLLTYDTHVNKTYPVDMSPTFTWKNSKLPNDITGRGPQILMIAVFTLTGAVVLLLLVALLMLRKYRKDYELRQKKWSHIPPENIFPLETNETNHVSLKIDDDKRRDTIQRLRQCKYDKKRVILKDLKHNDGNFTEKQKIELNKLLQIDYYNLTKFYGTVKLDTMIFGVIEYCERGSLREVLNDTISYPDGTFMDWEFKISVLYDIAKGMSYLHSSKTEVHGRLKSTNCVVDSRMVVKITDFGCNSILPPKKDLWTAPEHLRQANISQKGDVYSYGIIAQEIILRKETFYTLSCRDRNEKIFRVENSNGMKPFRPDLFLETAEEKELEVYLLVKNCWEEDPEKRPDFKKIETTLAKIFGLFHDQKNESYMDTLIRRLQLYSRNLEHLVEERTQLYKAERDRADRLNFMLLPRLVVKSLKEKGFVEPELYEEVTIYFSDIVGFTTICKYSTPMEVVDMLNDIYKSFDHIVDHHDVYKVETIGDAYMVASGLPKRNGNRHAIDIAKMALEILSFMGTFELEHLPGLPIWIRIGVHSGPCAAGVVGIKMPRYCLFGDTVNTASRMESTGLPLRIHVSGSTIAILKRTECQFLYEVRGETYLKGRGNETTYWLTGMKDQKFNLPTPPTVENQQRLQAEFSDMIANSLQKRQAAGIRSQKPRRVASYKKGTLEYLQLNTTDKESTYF

Molecule | binding to ST receptors and activation of guanylate cyclase, level relative to native ST [1] | cell death induced by CPT11 (human liver cancer cells) | IR-induced cell death [2] | protection from IR-induced cell death [3] | CPT11-induced cell death (HCT116 cells) | P53 dependence of protection from CPT11-induced cell death (HCT116 cells) | cell death in response to irinotecan challenge (human colon cells) | cell death induced by CPT11 [4] | cell death induced by CPT11 [5] | level of apoptosis in irradiated intestinal tissue ([6]; mice lacking genes encoding GCC or uroguanylin, cGMP supplementation (cGMP analog injected)) | level of apoptosis in irradiated intestinal tissue ([6]; wild type mice, cGMP supplementation)
Guanylin: 15 amino acid peptide from mammalian intestine, about 50% sequence homology to ST; native GCC agonist (SEQ ID NO:6, 54) (PGTCEICAYAACTGC; ends and bridges not checked; cysteine pairing not given here; UniProt Q02747 101-115, looked up) | 10- to 100 fold less than native ST |  |  |  |  |  |  |  |  |  | 
Nc1nc2c(ncn2[C@@H]2O[C@@H]3COP(=O)(O)O[C@H]3[C@H]2O)c(=O)[nH]1 [cGMP, cyclic GMP] |  | promoted cell death | resisted IR-induced cell death | protection by cGMP preconditioning did not occur | resisted CPT11-induced cell death | protection was P53 dependent | protected cell death | promoted cell death | promoted cell death | ameriolated the level of apoptosis | not in wild type mice
